Measurements taken from ChEMBL document CHEMBL1201862, “PubChem BioAssay data set” (2004).
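Method: 48-hour compound exposure of cells in 96-well plates, five concentrations, linear interpolation of endpoints. GI50 is the concentration that inhibits growth by half.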 Calls of active or inactive are those of the source. No stated cut-off is given here; in the data, active = GI50 up to about 1.1 µM and inactive = higher.

Legend:
Experiment in all cases: NCI anticancer screen, dose series, 48 h
A498 = system: A498
HCC 2998 = system: HCC 2998
HCT-116 = system: HCT-116
HCT-15 = system: HCT-15
HT-29 = system: HT-29
Hs-578T = system: Hs-578T
LOX IMVI = system: LOX IMVI
MCF7 = system: MCF7
MDA-MB-231 = system: MDA-MB-231
MDA-N = system: MDA-N
NCI-H226 = system: NCI-H226
NCI-H460 = system: NCI-H460
NCI-H522 = system: NCI-H522
OVCAR-3 = system: OVCAR-3
SF-268 = system: SF-268
SF-295 = system: SF-295
SK-MEL-5 = system: SK-MEL-5
T47D = system: T47D
UACC-257 = system: UACC-257

Compound	GI50 (A498)	GI50 (HCC 2998)	GI50 (HCT-116)	GI50 (HCT-15) [µM]	GI50 (HT-29)	GI50 (Hs-578T)	GI50 (LOX IMVI)	GI50 (MCF7)	GI50 (MDA-MB-231)	GI50 (MDA-N)	GI50 (NCI-H226)	GI50 (NCI-H460)	GI50 (NCI-H522)	GI50 (OVCAR-3)	GI50 (SF-268)	GI50 (SF-295)	GI50 (SK-MEL-5)	GI50 (T47D)	GI50 (UACC-257)
Cn1cnc([N+](=O)[O-])c1Sc1nc(N)nc2c1ncn2[C@H]1C[C@H](O)[C@@H](CO)O1	5.42 µM (inactive)	13.8 µM (inactive)	2.86 µM (inactive)	4.17	3.54 µM (inactive)	10.3 µM (inactive)	0.434 µM (active)	2.61 µM (inactive)	3.36 µM (inactive)	4.36 µM (inactive)	7.82 µM (inactive)	1.03 µM (active)	2.57 µM (inactive)	3.44 µM (inactive)	1.77 µM (inactive)	3.11 µM (inactive)	4.08 µM (inactive)	7.52 µM (inactive)	8.32 µM (inactive)
CCCSc1cc(Cl)c(C)cc1S(=O)(=O)n1ccnc1OCCCN(C)C	> 100 µM (inactive)	> 100 µM (inactive)	> 100 µM (inactive)	> 100	> 100 µM (inactive)	> 100 µM (inactive)	> 100 µM (inactive)	> 100 µM (inactive)	> 100 µM (inactive)	> 100 µM (inactive)	> 100 µM (inactive)	> 100 µM (inactive)	> 100 µM (inactive)	> 100 µM (inactive)	> 100 µM (inactive)	> 100 µM (inactive)	> 100 µM (inactive)	> 100 µM (inactive)	> 100 µM (inactive)
COc1c(/C=C/C=O)cc2c(c1OC)OCO2	1.21 µM (inactive)	29.4 µM (inactive)	34 µM (inactive)	15.3	24.2 µM (inactive)	55.8 µM (inactive)	24.5 µM (inactive)	28 µM (inactive)	31.6 µM (inactive)	24.5 µM (inactive)	2.96 µM (inactive)	14.7 µM (inactive)	78.3 µM (inactive)	33.2 µM (inactive)	41.1 µM (inactive)	21.2 µM (inactive)	21.1 µM (inactive)	23.3 µM (inactive)	48.1 µM (inactive)
COc1c2c(nc3ccccc13)-c1cc(C(CC(=O)OC(C)(C)C)C(=O)OC(C)C)c(CO)c(=O)n1C2 (stereo unspecified)	57.3 µM (inactive)	> 100 µM (inactive)	37 µM (inactive)	> 78.2	58.5 µM (inactive)	> 75.3 µM (inactive)	32.4 µM (inactive)	6.85 µM (inactive)	> 100 µM (inactive)	> 100 µM (inactive)	67.8 µM (inactive)	10.4 µM (inactive)	37.6 µM (inactive)	> 100 µM (inactive)	> 62.8 µM (inactive)	29.2 µM (inactive)	43.5 µM (inactive)	22.1 µM (inactive)	> 100 µM (inactive)
Cc1ccc(OCC2OC(n3cnc4c(N(C)C)nc(Br)nc43)CC2Oc2ccc(C)cc2)cc1 (stereo unspecified)	> 100 µM (inactive)	> 100 µM (inactive)	> 100 µM (inactive)	> 100	> 100 µM (inactive)	> 100 µM (inactive)	> 100 µM (inactive)	> 100 µM (inactive)	> 100 µM (inactive)	> 100 µM (inactive)	> 100 µM (inactive)	> 100 µM (inactive)	> 100 µM (inactive)	> 100 µM (inactive)	> 100 µM (inactive)	> 100 µM (inactive)	> 100 µM (inactive)	> 100 µM (inactive)	> 100 µM (inactive)
Cc1cc(NS(=O)(=O)c2ccc(Nc3c4ccccc4nc4ccc(C(=O)Nc5ccc(S(N)(=O)=O)cc5)cc34)cc2)no1	> 100 µM (inactive)	> 100 µM (inactive)	> 100 µM (inactive)	> 100	> 100 µM (inactive)	> 100 µM (inactive)	> 100 µM (inactive)	> 100 µM (inactive)	> 100 µM (inactive)	> 100 µM (inactive)	> 100 µM (inactive)	> 100 µM (inactive)	> 100 µM (inactive)	> 100 µM (inactive)	> 100 µM (inactive)	> 100 µM (inactive)	> 100 µM (inactive)	84.3 µM (inactive)	> 100 µM (inactive)
NC1c2c(Br)sc(N3CCCC3)c2C(=O)C1O (stereo unspecified)	> 50 µM (inactive)	36.6 µM (inactive)	> 50 µM (inactive)	> 50	> 50 µM (inactive)	> 50 µM (inactive)	> 50 µM (inactive)	> 50 µM (inactive)	29.1 µM (inactive)	> 50 µM (inactive)	> 50 µM (inactive)	> 50 µM (inactive)	> 50 µM (inactive)	> 50 µM (inactive)	> 50 µM (inactive)	> 50 µM (inactive)	> 50 µM (inactive)	> 50 µM (inactive)	> 50 µM (inactive)
Cc1ccc(S(=O)(=O)N2CCSCCSCCN(S(=O)(=O)c3ccc(C)cc3)CCN(S(=O)(=O)c3ccc(C)cc3)CC2)cc1	> 100 µM (inactive)	> 100 µM (inactive)	> 100 µM (inactive)	> 100	> 100 µM (inactive)	> 100 µM (inactive)	> 100 µM (inactive)	> 100 µM (inactive)	> 100 µM (inactive)	> 100 µM (inactive)	> 100 µM (inactive)	> 100 µM (inactive)	> 100 µM (inactive)	> 100 µM (inactive)	> 100 µM (inactive)	> 100 µM (inactive)	> 100 µM (inactive)	> 100 µM (inactive)	> 100 µM (inactive)
O=C(/C=C/c1ccc(Cl)cc1)Oc1ccc(C=C2CCC/C(=C\c3ccc(OC(=O)/C=C/c4ccc(Cl)cc4)cc3)C2=O)cc1	> 100 µM (inactive)	> 100 µM (inactive)	> 100 µM (inactive)	> 100	> 100 µM (inactive)	> 100 µM (inactive)	> 100 µM (inactive)	> 100 µM (inactive)	> 100 µM (inactive)	> 100 µM (inactive)	> 100 µM (inactive)	> 100 µM (inactive)	> 100 µM (inactive)	> 100 µM (inactive)	> 100 µM (inactive)	> 100 µM (inactive)	> 100 µM (inactive)	> 100 µM (inactive)	> 100 µM (inactive)
O=C(NCCN(CCNC(=O)c1cccc(=O)n1O)CCN(CCNC(=O)c1cccc(=O)n1O)CCNC(=O)c1cccc(=O)n1O)c1cccc(=O)n1O	> 100 µM (inactive)	> 100 µM (inactive)	> 100 µM (inactive)	> 100	89.9 µM (inactive)	> 100 µM (inactive)	> 100 µM (inactive)	> 100 µM (inactive)	> 100 µM (inactive)	> 100 µM (inactive)	> 100 µM (inactive)	> 100 µM (inactive)	> 100 µM (inactive)	> 100 µM (inactive)	> 100 µM (inactive)	> 100 µM (inactive)	> 100 µM (inactive)	> 100 µM (inactive)	> 100 µM (inactive)
CN(C)CCCNC(=O)c1c(O)c2ccccc2n(C)c1=O	> 100 µM (inactive)	82.2 µM (inactive)	44.1 µM (inactive)	51.1	55.6 µM (inactive)	> 100 µM (inactive)	30.6 µM (inactive)	43.9 µM (inactive)	86.5 µM (inactive)	64.1 µM (inactive)	67 µM (inactive)	42 µM (inactive)	61.8 µM (inactive)	> 100 µM (inactive)	49.8 µM (inactive)	48.5 µM (inactive)	53.7 µM (inactive)	71.3 µM (inactive)	67.5 µM (inactive)
CC(=O)NNc1nc(C)c(C(/C=C/c2ccc([N+](=O)[O-])cc2)=N/NC(N)=O)s1	> 100 µM (inactive)	> 100 µM (inactive)	> 100 µM (inactive)	> 100	> 100 µM (inactive)	> 100 µM (inactive)	> 100 µM (inactive)	> 100 µM (inactive)	> 100 µM (inactive)	> 100 µM (inactive)	> 100 µM (inactive)	> 100 µM (inactive)	> 100 µM (inactive)	> 100 µM (inactive)	> 100 µM (inactive)	> 100 µM (inactive)	> 100 µM (inactive)	> 100 µM (inactive)	> 100 µM (inactive)
Cc1ccc(S(=O)(=O)NC(CO)C(=O)O)cc1 (stereo unspecified)	> 100 µM (inactive)	> 100 µM (inactive)	> 100 µM (inactive)	> 100	> 100 µM (inactive)	> 100 µM (inactive)	> 100 µM (inactive)	> 100 µM (inactive)	> 100 µM (inactive)	> 100 µM (inactive)	> 100 µM (inactive)	> 100 µM (inactive)	> 100 µM (inactive)	> 100 µM (inactive)	> 100 µM (inactive)	> 100 µM (inactive)	> 100 µM (inactive)	> 100 µM (inactive)	> 100 µM (inactive)
COc1cc(OCCN(C)C)c2[nH]c(C(=O)N3CC(CCl)c4ccc(N)cc43)cc2c1 (stereo unspecified)	0.201 µM (active)	0.0265 µM (active)	0.0238 µM (active)	0.0418	< 0.0246 µM (active)	0.361 µM (active)	0.021 µM (active)	0.0139 µM (active)	0.0912 µM (active)	0.0643 µM (active)	0.0865 µM (active)	0.0147 µM (active)	0.0139 µM (active)	0.0282 µM (active)	0.0264 µM (active)	0.0369 µM (active)	0.0342 µM (active)	0.0312 µM (active)	0.0546 µM (active)
